Results as given in US11254688B2 (Boehringer Ingelheim International GmbH, priority 2018, dated 2022).

target: T1, hGOAT (Homo sapiens, UniProt Q96T53); test: Determination of hGOAT activity in HEK293 cells after incubation with test compound (acyl-ghrelin ELISA); assay type: cell-based; conditions: HEK293 cells stably transfected with preproghrelin and human GOAT; octanoate-BSA 100 μM; 5 hours incubation; acyl-ghrelin in medium by ELISA; 8 compound concentrations
T1 construct: expressed in transfected cells; host or cells: HEK293 (Hek293 hGOAT/PPGhrl Clone #1B8)
T1 sequence (Q96T53 1-435): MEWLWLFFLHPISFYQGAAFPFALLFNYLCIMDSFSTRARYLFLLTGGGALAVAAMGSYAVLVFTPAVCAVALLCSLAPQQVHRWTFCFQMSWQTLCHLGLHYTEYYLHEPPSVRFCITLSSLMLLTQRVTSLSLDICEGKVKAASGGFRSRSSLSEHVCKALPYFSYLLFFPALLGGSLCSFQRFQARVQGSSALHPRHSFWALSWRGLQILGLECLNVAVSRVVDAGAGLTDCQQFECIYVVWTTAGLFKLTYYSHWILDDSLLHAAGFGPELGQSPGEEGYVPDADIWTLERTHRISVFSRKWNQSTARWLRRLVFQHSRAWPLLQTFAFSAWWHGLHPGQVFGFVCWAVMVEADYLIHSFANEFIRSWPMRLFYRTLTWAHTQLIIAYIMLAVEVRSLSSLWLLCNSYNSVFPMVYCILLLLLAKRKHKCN
Method: Determination of hGOAT Activity in HEK293 Cells after Incubation with Test Compound
HEK293 cells stably transfected with two expression vectors, one coding for preproghrelin cDNA and a second for the expression of human GOATcDNA are used as a cellular model. After feeding the cells with octanoic acid for 5 hours, acyl-ghrelin is measured in cell culture medium by an ELISA procedure.
Cellline: Hek293 hGOAT/PPGhrl Clone #1B8Sodium octanoate, Sigma, Cat.-No. C5038
BD Poly-D-Lysin 384-well Plates, black-clear polystyrene BD Bioscience Cat.-No. […] ELISA human acylated Ghrelin Kit purchased from Bertin Pharman (detailed composition of buffers e.g. wash-puffer, ELISA buffer not known)
Cells are plated with a density of 5000 cells/well in 384-well poly-D-lysin plates and incubated for 1 day at 37° C., 5% CO2 in DMEM medium, 10% FCS, 1×NEAA, Puromycin (0.5 μg/ml) and G418 (1 mg/ml). Then the medium is changed to a identical medium without FCS and containing Octanoate-BSA (final concentration 100 μM each) and compound in DMSO (final DMSO concentration 0,3%). After incubation for 5 hours acylghrelin in the medium is measured by ELISA.
The medium sample is diluted 1:25 in Elisa buffer, a 25 μl aliquot is transferred to a 384-well ELISA plate previously washed 4 times with 100 μL wash buffer, and 25 μl tracer-solution is added. After incubation overnight (˜20 h) at 4° C. temperature the plate is washed 4 times with 100 μl wash-buffer per well. Finally 50 μl Ellman's reagent is added to each well and the plate is incubated in the dark for 20 minutes. The absorbance is measured at 405 nm in an Envision multilabel reader and the amount of acylated ghrelin is calculated according to a acylated ghrelin standard curve provided in the same plate.
The analysis of the data is performed by calculation of the percentage of acyl-ghrelin produced in the presence of test compound compared to the amount of acyl-ghrelin produced in the vehicle control samples. An inhibitor of the GOAT enzyme will give values between 100% CTL (no inhibition) and 0% CTL (complete inhibition).
IC50 values are calculated with Assay Explorer or other suited software based on curve fitting of results of 8 different compound concentrations.

Structure (SMILES)	IC50 [nM]
Cc1nc2nonc2c(N)c1Cc1ccc(C#N)c(OC(F)(F)F)c1 [Compound 4.43, 4-({7-Amino-5-methyl-[1,2,5]oxadiazolo[3,4-b]pyridin-6-yl}methyl)-2-(trifluoromethoxy)benzonitrile]	0.052
Cc1nc2nonc2c(N)c1Cc1ccc(F)c(Br)c1 [Compound 4.44, 6-(3-Bromo-4-fluoro-benzyl)-5-methyl-[1,2,5]oxadiazolo[3,4-b]pyridin-7-ylamine]	0.573
Cc1nc2nonc2c(N)c1Cc1ccc(C#N)c(Br)c1 [Compound 4.45, 4-(7-Amino-5-methyl-[1,2,5]oxadiazolo[3,4-b]pyridin-6-ylmethyl)-2-bromo-benzonitrile]	0.233
Cc1nc2nonc2c(N)c1Cc1ccc(OC(F)(F)F)cc1F [Compound 4.46, 6-(2-Fluoro-4-trifluoromethoxy-benzyl)-5-methyl-[1,2,5]oxadiazolo[3,4-b]pyridin-7-ylamine]	0.052
Cc1nc2nonc2c(N)c1Cc1cccnc1OC(F)F [Compound 4.47, 6-{[2-(Difluoromethoxy)pyridin-3-yl]methyl}-5-methyl-[1,2,5]oxadiazolo[3,4-b]pyridin-7-amine]	1.8
Cc1nc2nonc2c(N)c1Cc1ccnc(OC(F)F)c1 [Compound 4.48, 6-(2-Difluoromethoxy-pyridin-4-ylmethyl)-5-methyl-[1,2,5]oxadiazolo[3,4-b]pyridin-7-ylamine]	3
Cc1nc2nonc2c(N)c1Cc1cnc(OC(F)F)c(C#N)c1 [Compound 4.49, 5-({7-Amino-5-methyl-[1,2,5]oxadiazolo[3,4-b]pyridin-6-yl}methyl)-2-(difluoromethoxy)pyridine-3-carbonitrile]	35.7
Cc1nc2nonc2c(N)c1Cc1ccc(F)cc1 [Compound 4.50, 6-[(4-Fluorophenyl)methyl]-5-methyl-[1,2,5]oxadiazolo[3,4-b]pyridin-7-amine]	0.751
COc1cccc(Cc2c(C)nc3nonc3c2N)c1 [Compound 4.51, 6-[(3-Methoxyphenyl)methyl]-5-methyl-[1,2,5]oxadiazolo[3,4-b]pyridin-7-amine]	0.673
Cc1nc2nonc2c(N)c1Cc1cc(F)c(F)c(F)c1 [Compound 4.52, 5-Methyl-6-[(3,4,5-trifluorophenyl)methyl]-[1,2,5]oxadiazolo[3,4-b]pyridin-7-amine]	1.59
COc1ccc(Cc2c(C)nc3nonc3c2N)cc1 [Compound 4.53, 6-[(4-Methoxyphenyl)methyl]-5-methyl-[1,2,5]oxadiazolo[3,4-b]pyridin-7-amine]	0.147
Cc1nc2nonc2c(N)c1Cc1cccc(OC(F)F)c1 [Compound 4.54, 6-{[3-(Difluoromethoxy)phenyl]methyl}-5-methyl-[1,2,5]oxadiazolo[3,4-b]pyridin-7-amine]	0.495
Cc1nc2nonc2c(N)c1Cc1ccnc(Cl)c1 [Compound 4.55, 6-[(2-Chloropyridin-4-yl)methyl]-5-methyl-[1,2,5]oxadiazolo[3,4-b]pyridin-7-amine]	6.27
Cc1nc2nonc2c(N)c1Cc1ccnc(OC(F)(F)F)c1 [Compound 4.56, 5-Methyl-6-{[2-(trifluoromethoxy)pyridin-4-yl]methyl}-[1,2,5]oxadiazolo[3,4-b]pyridin-7-amine]	0.519
Cc1nc2nonc2c(N)c1Cc1ccc(C(F)(F)F)c(C#N)c1 [Compound 4.57, 5-({7-Amino-5-methyl-[1,2,5]oxadiazolo[3,4-b]pyridin-6-yl}methyl)-2-(trifluoromethyl)benzonitrile]	0.121
Cc1nc2nonc2c(N)c1Cc1ccc(OC(F)(F)F)nc1 [Compound 4.58, 5-Methyl-6-{[6-(trifluoromethoxy)pyridin-3-yl]methyl}-[1,2,5]oxadiazolo[3,4-b]pyridin-7-amine]	0.752
Cc1nc2nonc2c(N)c1Cc1ccc(C#N)c(C#N)c1 [Compound 4.59, 4-({7-Amino-5-methyl-[1,2,5]oxadiazolo[3,4-b]pyridin-6-yl}methyl)benzene-1,2-dicarbonitrile]	2.51
Cc1nc2nonc2c(N)c1Cc1cnc(C(F)(F)F)c(C#N)c1 [Compound 4.60, 5-({7-Amino-5-methyl-[1,2,5]oxadiazolo[3,4-b]pyridin-6-yl}methyl)-2-(trifluoromethyl)pyridine-3-carbonitrile]	6.74
Cc1nc2nonc2c(N)c1Cc1ccc(Br)c(C#N)c1 [Compound 4.61, 5-({7-Amino-5-methyl-[1,2,5]oxadiazolo[3,4-b]pyridin-6-yl}methyl)-2-bromobenzonitrile]	0.542
Cc1nc2nonc2c(N)c1Cc1cccc(OCF)c1 [Compound 8.1, 6-{[3-(Fluoromethoxy)phenyl]methyl}-5-methyl-[1,2,5]oxadiazolo[3,4-b]pyridin-7-amine]	1.09
Nc1c(Cc2ccc(C(F)(F)F)cc2)c(C(F)(F)F)nc2nonc12 [Compound 9.1, 5-(Trifluoromethyl)-6-{[4-(trifluoromethyl)phenyl]methyl}-[1,2,5]oxadiazolo[3,4-b]pyridin-7-amine]	9.47
Cc1nc2nonc2c(N)c1Cc1ccc(O)cc1 [Compound 10.1, 4-(7-Amino-5-methyl-[1,2,5]oxadiazolo[3,4-b]pyridin-6-ylmethyl)-phenol]	0.594
Nc1c(Cc2ccc(OC(F)(F)F)cc2)c(CF)nc2nonc12 [Compound 11.1, 5-(Fluoromethyl)-6-{[4-(trifluoromethoxy)phenyl]methyl}-[1,2,5]oxadiazolo[3,4-b]pyridin-7-amine]	0.068

Other lines, results leading:

IC50 [nM]	Structure (SMILES)
0.079	Cc1nc2nonc2c(N)c1Cc1cccc(-c2ccn[nH]2)c1 [Compound 12.1, 5-Methyl-6-{[3-(1H-pyrazol-5-yl)phenyl]methyl}-[1,2,5]oxadiazolo[3,4-b]pyridin-7-amine]
0.043	Cc1nc2nonc2c(N)c1Cc1ccc(OC(F)(F)F)c(-c2cc[nH]n2)c1 [Compound 12.2, 5-Methyl-6-[3-(1H-pyrazol-3-yl)-4-trifluoromethoxy-benzyl]-[1,2,5]oxadiazolo[3,4-b]pyridin-7-ylamine]
0.509	Cc1nc2nonc2c(N)c1Cc1ccc(-c2ccsc2C#N)nc1 [Compound 12.3, 3-[5-(7-Amino-5-methyl-[1,2,5]oxadiazolo[3,4-b]pyridin-6-ylmethyl)-pyridin-2-yl]-thiophene-2-carbonitrile]
1.52	Cc1nc2nonc2c(N)c1Cc1ccc(-c2cscc2C#N)nc1 [Compound 12.4, 4-[5-(7-Amino-5-methyl-[1,2,5]oxadiazolo[3,4-b]pyridin-6-ylmethyl)-pyridin-2-yl]-thiophene-3-carbonitrile]
3.66	Cc1nc2nonc2c(N)c1Cc1ccc(-c2ccc(C#N)s2)nc1 [Compound 12.5, 5-[5-(7-Amino-5-methyl-[1,2,5]oxadiazolo[3,4-b]pyridin-6-ylmethyl)-pyridin-2-yl]-thiophene-2-carbonitrile]
0.402	Cc1nc2nonc2c(N)c1Cc1ccc(-c2c(C)noc2C)nc1 [Compound 12.6, 6-{[6-(3,5-Dimethyl-1,2-oxazol-4-yl)pyridin-3-yl]methyl}-5-methyl-[1,2,5]oxadiazolo[3,4-b]pyridin-7-amine]
1.17	Cc1nc2nonc2c(N)c1Cc1ccc(-c2cn(C)nc2C(F)(F)F)nc1 [Compound 12.7, 5-Methyl-6-({6-[1-methyl-3-(trifluoromethyl)-1H-pyrazol-4-yl]pyridin-3-yl}methyl)-[1,2,5]oxadiazolo[3,4-b]pyridin-7-amine]
0.531	Cc1nc2nonc2c(N)c1Cc1ccc(-c2cncn2C)nc1 [Compound 12.8, 5-Methyl-6-{[6-(1-methyl-1H-imidazol-5-yl)pyridin-3-yl]methyl}-[1,2,5]oxadiazolo[3,4-b]pyridin-7-amine]
1.49	Cc1nc2nonc2c(N)c1Cc1ccc(-c2ccco2)nc1 [Compound 12.9, 6-{[6-(Furan-2-yl)pyridin-3-yl]methyl}-5-methyl-[1,2,5]oxadiazolo[3,4-b]pyridin-7-amine]
